Patent US8859569B2, “Substituted annellated pyrimidines and use thereof” (Bayer Pharma Aktiengesellschaft, priority 2011, dated 2014)

Assays:
[1] = molecular target: T1, human phosphodiesterase 5 (PDE-5) (Homo sapiens, UniProt O76074); test: Inhibition of human phosphodiesterase 5 (PDE-5), SPA assay; type: biochemical; settings: PDE-5 preparation from human platelets, [8-3H]cGMP substrate
T1 construct: PDE-5 preparations are obtained from human platelets by lysis; from tissue; host or cells: human platelets
Method in brief: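 Scintillation proximity read-out with yttrium beads after 60 min room-temperature hydrolysis of 0.025 μCi [8-3H]cGMP, pH 7.5 Tris/MgCl2/EDTA buffer. Enzyme is a human platelet PDE-5 fraction, diluted to keep substrate turnover below 70%. Test concentrations 4 μM–0.0018 μM final; IC50 from inhibition curves.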

aorta rings = test: Vessel-relaxing action in vitro (aorta rings, phenylephrine contraction); settings: Oryctolagus cuniculus, concentration required to reduce phenylephrine-induced contraction of rabbit aorta rings by 50%
Protocol: B-1. Vessel-relaxing Action in vitro
Rabbits are stunned with a blow on the back of the neck and exsanguinated. The aorta is removed, freed from adhering tissue, separated into rings with a width of 1.5 mm, and placed individually, with preloading, in 5-ml organ baths with carbogen-gassed Krebs-Henseleit solution at 37° C. with the following composition (mM in each case): sodium chloride: 119; potassium chloride: 4.8; calcium chloride dihydrate: 1; magnesium sulphate heptahydrate: 1.4; potassium dihydrogen phosphate: 1.2; sodium hydrogen carbonate: 25; glucose: 10. The contraction force is recorded with Statham UC2 cells, amplified and digitized via an A/D converter (DAS-1802 HC, Keithley Instruments Munich) and recorded in parallel on a continuous-line recorder. To produce contraction, phenylephrine is added to the bath cumulatively in increasing concentration. After several control cycles, the test substance is added in increasing dosage in each subsequent pass and the level of contraction is compared with the level of contraction reached in the immediately preceding pass. This is used for calculating the concentration that is required to reduce the level of the control value by 50% (IC50 value). The standard application volume is 5 μl, and the proportion of DMSO in the bath solution corresponds to 0.1%.

[2] = molecular target: T2, recombinant guanylate cyclase reporter cell line (Rattus norvegicus, UniProt P19686+P20595); test: Action on recombinant guanylate cyclase reporter cell line; type: cell-based
T2 construct: expressed in transfected cells
T2 sequence (P20595 1-619): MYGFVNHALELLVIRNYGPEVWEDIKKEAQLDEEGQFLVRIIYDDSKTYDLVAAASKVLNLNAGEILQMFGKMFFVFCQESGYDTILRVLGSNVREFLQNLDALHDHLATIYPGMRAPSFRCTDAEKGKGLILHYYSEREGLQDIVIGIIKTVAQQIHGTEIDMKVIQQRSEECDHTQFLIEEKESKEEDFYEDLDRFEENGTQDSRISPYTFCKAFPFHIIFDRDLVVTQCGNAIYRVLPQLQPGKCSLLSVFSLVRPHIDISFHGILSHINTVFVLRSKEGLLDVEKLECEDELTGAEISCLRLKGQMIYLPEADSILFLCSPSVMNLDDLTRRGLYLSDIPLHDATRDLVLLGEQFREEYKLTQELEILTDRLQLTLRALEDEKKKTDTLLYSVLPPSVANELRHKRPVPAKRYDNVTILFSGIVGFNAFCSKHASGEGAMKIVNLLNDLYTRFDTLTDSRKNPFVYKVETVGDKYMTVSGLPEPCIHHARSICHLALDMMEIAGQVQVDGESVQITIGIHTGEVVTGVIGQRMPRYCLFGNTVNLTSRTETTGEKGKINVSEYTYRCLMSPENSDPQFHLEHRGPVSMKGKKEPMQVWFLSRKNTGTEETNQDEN
T2 sequence (P19686 1-690): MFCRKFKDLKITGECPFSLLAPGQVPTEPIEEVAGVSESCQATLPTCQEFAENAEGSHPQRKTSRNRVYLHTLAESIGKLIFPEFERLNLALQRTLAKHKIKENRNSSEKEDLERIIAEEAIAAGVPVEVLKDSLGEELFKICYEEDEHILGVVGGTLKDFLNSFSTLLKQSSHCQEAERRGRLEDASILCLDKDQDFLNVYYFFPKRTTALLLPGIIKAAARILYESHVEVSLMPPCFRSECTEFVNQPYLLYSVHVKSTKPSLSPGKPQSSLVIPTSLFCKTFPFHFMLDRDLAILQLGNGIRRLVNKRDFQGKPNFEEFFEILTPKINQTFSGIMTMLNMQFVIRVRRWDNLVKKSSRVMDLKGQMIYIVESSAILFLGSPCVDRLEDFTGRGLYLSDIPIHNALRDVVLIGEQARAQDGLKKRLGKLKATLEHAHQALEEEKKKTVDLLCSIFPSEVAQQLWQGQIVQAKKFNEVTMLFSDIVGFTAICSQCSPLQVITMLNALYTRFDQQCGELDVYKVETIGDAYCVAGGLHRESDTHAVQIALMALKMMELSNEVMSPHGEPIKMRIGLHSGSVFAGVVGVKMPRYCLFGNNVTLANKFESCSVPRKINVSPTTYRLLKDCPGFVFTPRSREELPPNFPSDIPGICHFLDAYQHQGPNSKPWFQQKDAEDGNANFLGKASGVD
Protocol: B-2. Action on Recombinant Guanylate Cyclase Reporter Cell Line
The cellular action of the compounds according to the invention is determined on a recombinant guanylate cyclase reporter cell line, as described in F. Wunder et al., Anal. Biochem. 339, 104-112 (2005).

SMILES | IC50 [1] [nM] | IC50 (aorta rings) [nM] | MEC (minimal effective concentration) [2] [μm]
Cc1nc2c(cc1F)c(-c1nc(NCCC(F)(F)F)c3c(n1)NC(=O)C3(C)C)nn2Cc1ccccc1F [Example 90, 2-[5-Fluoro-1-(2-fluorobenzyl)-6-methyl-1H-pyrazolo[3,4-b]pyridin-3-yl]-5,5-dimethyl-4-[(3,3,3-trifluoropropyl)amino]-5,7-dihydro-6H-pyrrolo[2,3-d]pyrimidin-6-one] | 230 | 3070 | 0.3
C[C@H](Nc1nc(-c2nn(Cc3ccccc3F)c3ncc(F)cc23)nc2c1C(C)(C)C(=O)N2)C1CC1 [Example 89, 4-{[(1S)-1-Cyclopropylethyl]amino}-2-[5-fluoro-1-(2-fluorobenzyl)-1H-pyrazolo[3,4-b]pyridin-3-yl]-5,5-dimethyl-5,7-dihydro-6H-pyrrolo[2,3-d]pyrimidin-6-one] | 82 | 3880 | 0.03
CC1(C)C(=O)Nc2nc(-c3nn(Cc4ccccc4F)c4ncc(F)cc34)nc(NC(C3CC3)C3CC3)c21 [Example 9, 4-[(Dicyclopropylmethyl)amino]-2-[5-fluoro-1-(2-fluorobenzyl)-1H-pyrazolo[3,4-b]pyridin-3-yl]-5,5-dimethyl-5,7-dihydro-6H-pyrrolo[2,3-d]pyrimidin-6-one] | 230 | 21000 | 0.1
CC1C(=O)NCCN1c1nc(-c2nn(Cc3ccccc3F)c3ncccc23)nc2c1C(C)(C)C(=O)N2 (stereo not drawn) [Example 92, 2-[1-(2-Fluorobenzyl)-1H-pyrazolo[3,4-b]pyridin-3-yl]-5,5-dimethyl-4-(2-methyl-3-oxopiperazin-1-yl)-5,7-dihydro-6H-pyrrolo[2,3-d]pyrimidin-6-one] | 170 | 520 | 0.3
CCOc1nc(-c2nn(Cc3ccccc3F)c3ncccc23)nc2c1C(C)(C)C(=O)N2 [Example 112, 4-Ethoxy-2-[1-(2-fluorobenzyl)-1H-pyrazolo[3,4-b]pyridin-3-yl]-5,5-dimethyl-5,7-dihydro-6H-pyrrolo[2,3-d]pyrimidin-6-one] | 210 | 1620 | 0.1
Cc1cc(C)n(-c2nc(-c3nn(Cc4ccccc4F)c4ncccc34)nc3c2C(C)(C)C(=O)N3)n1 [Example 23, 4-(3,5-Dimethyl-1H-pyrazol-1-yl)-2-[1-(2-fluorobenzyl)-1H-pyrazolo[3,4-b]pyridin-3-yl]-5,5-dimethyl-5,7-dihydro-6H-pyrrolo[2,3-d]pyrimidin-6-one] | 1600 | 2860 | 0.1
CC1(C)C(=O)Nc2nc(-c3nn(Cc4ccccc4F)c4ncccc34)nc(N3CC(C(F)(F)F)CCC3=O)c21 (stereo not drawn) [Example 91, 2-[1-(2-Fluorobenzyl)-1H-pyrazolo[3,4-b]pyridin-3-yl]-5,5-dimethyl-4-[2-oxo-5-(trifluoromethyl)piperidin-1-yl]-5,7-dihydro-6H-pyrrolo[2,3-d]pyrimidin-6-one] | 600 | 517 | 0.03

Continued by falling IC50 [1], values first:

IC50 [1] [nM] | IC50 (aorta rings) [nM] | MEC (minimal effective concentration) [2] [μm] | SMILES
80 | 482 | 0.1 | CC1(C)C(=O)Nc2nc(-c3nn(Cc4ccccc4F)c4ncc(F)cc34)nc(N3CC(O)C3)c21 [Example 104, 2-[5-Fluoro-1-(2-fluorobenzyl)-1H-pyrazolo[3,4-b]pyridin-3-yl]-4-(3-hydroxyazetidin-1-yl)-5,5-dimethyl-5,7-dihydro-6H-pyrrolo[2,3-d]pyrimidin-6-one]
74 | 156 | 1 | CC1(C)C(=O)Nc2nc(-c3nn(Cc4ccccc4F)c4ncc(F)cc34)nc(O)c21 [Example 102, 2-[5-Fluoro-1-(2-fluorobenzyl)-1H-pyrazolo[3,4-b]pyridin-3-yl]-4-hydroxy-5,5-dimethyl-5,7-dihydro-6H-pyrrolo[2,3-d]pyrimidin-6-one]
63 | 1350 | 0.1 | CC1(C)C(=O)Nc2nc(-c3nn(Cc4ccccc4F)c4ncc(F)cc34)nc(NCC3CC3(F)F)c21 (stereo not drawn) [Example 97, 4-{[(2,2-Difluorocyclopropyl)methyl]amino}-2-[5-fluoro-1-(2-fluorobenzyl)-1H-pyrazolo[3,4-b]pyridin-3-yl]-5,5-dimethyl-5,7-dihydro-6H-pyrrolo[2,3-d]pyrimidin-6-one]
48 | 663 | 0.3 | CC1(C)C(=O)Nc2nc(-c3nn(Cc4ccccc4F)c4ncc(F)cc34)nc(NCC(F)(F)F)c21 [Example 11, 2-[5-Fluoro-1-(2-fluorobenzyl)-1H-pyrazolo[3,4-b]pyridin-3-yl]-5,5-dimethyl-4-[(2,2,2-trifluoroethyl)amino]-5,7-dihydro-6H-pyrrolo[2,3-d]pyrimidin-6-one]
25 | 444 | 0.3 | Cc1ncc2c(-c3nc(NCCC(F)(F)F)c4c(n3)NC(=O)C4(C)C)nn(Cc3ccccc3F)c2n1 [Example 108, 2-[1-(2-Fluorobenzyl)-6-methyl-1H-pyrazolo[3,4-d]pyrimidin-3-yl]-5,5-dimethyl-4-[(3,3,3-trifluoropropyl)amino]-5,7-dihydro-6H-pyrrolo[2,3-d]pyrimidin-6-one]
24 | 200 | 0.1 | CC1(C)C(=O)Nc2nc(-c3nn(Cc4ncccc4F)c4ncc(F)cc34)nc(NCC3CC3)c21 [Example 17, 4-[(Cyclopropylmethyl)amino]-2-{5-fluoro-1-[(3-fluoropyridin-2-yl)methyl]-1H-pyrazolo[3,4-b]pyridin-3-yl}-5,5-dimethyl-5,7-dihydro-6H-pyrrolo[2,3-d]pyrimidin-6-one]
12 | 674 | 0.03 | CC1(C)C(=O)Nc2nc(-c3nn(Cc4ccccc4F)c4ncccc34)nc(-n3cc(O)cn3)c21 [Example 26, 2-[1-(2-Fluorobenzyl)-1H-pyrazolo[3,4-b]pyridin-3-yl]-4-(4-hydroxy-1H-pyrazol-1-yl)-5,5-dimethyl-5,7-dihydro-6H-pyrrolo[2,3-d]pyrimidin-6-one]
4 | 214 | 0.01 | CC1(C)C(=O)Nc2nc(-c3nn(Cc4ccccc4F)c4ncc(F)cc34)nc(NCC3(O)CC3)c21 [Example 98, 2-[5-Fluoro-1-(2-fluorobenzyl)-1H-pyrazolo[3,4-b]pyridin-3-yl]-4-{[(1-hydroxycyclopropyl)methyl]amino}-5,5-dimethyl-5,7-dihydro-6H-pyrrolo[2,3-d]pyrimidin-6-one]
